The source of these data is patent publication US20080227823A1, “AMIDE DERIVATIVES AS CALCIUM CHANNEL BLOCKERS” (priority 2007, published 2008).

For experiment [1], the target named is T1, human α1G T-type channels (Homo sapiens, UniProt O43497).
T1 construct: expressed in transfected cells; host or cells: HEK 293
Put plainly: T-type calcium channel block, whole cell patch clamp in HEK cells. The format is cell-based. Conditions: measured at 1 μM drug, mainly non-inactivated protocol. The procedure: (§1) T-type calcium channel blocking activity was assayed in human embryonic kidney cells, HEK 293, stably transfected with the T-type calcium channel subunits. Briefly, cells were cultured in Dulbecco's modified eagle medium (DMEM) supplemented with 10% fetal bovine serum, 200 U/ml penicillin and 0.2 mg/ml streptomycin at 37° C. with 5% CO2. At 85% confluency cells were split with 0.25% trypsin/1 mM EDTA and plated at 10% confluency on glass coverslips. At 12 hours the medium was replaced and the cells stably transfected using a standard calcium phosphate protocol and the appropriate calcium channel cDNA's. Fresh DMEM was supplied and the cells transferred to 28° C./5% CO2. Cells were incubated for 1 to 2 days prior to whole cell recording.
(§2) Standard patch-clamp techniques were employed to identify blockers of T-type currents. Briefly, previously described HEK cell lines stably expressing human α1G, α1H and α1I T-type channels were used for all the recordings (passage #: 4-20, 37° C., 5% CO2). Whole cell patch clamp experiments were performed using an Axopatch 200B amplifier (Axon Instruments, Burlingame, Calif.) linked to a personal computer equipped with pCLAMP software. Data were analyzed using Clampfit (Axon Instruments) and SigmaPlot 4.0 (Jandel Scientific). To obtain T-type currents, plastic dishes containing semi-confluent cells were positioned on the stage of a ZEISS AXIOVERT S100 microscope after replacing the culture medium with external solution (see below). Whole-cell patches were obtained using pipettes (borosilicate glass with filament, O.D.: 1.5 mm, I.D.: 0.86 mm, 10 cm length), fabricated on a SUTTER P-97 puller with resistance values of ˜5 MΩ (see below for internal solution).
(§3) T-type currents were reliably obtained by using two voltage protocols: • (1) “non-inactivating”, and • (2) “inactivation”
(§4) In the non-inactivating protocol, the holding potential is set at −110 mV and with a pre-pulse at −100 mV for 1 second prior to the test pulse at −40 mV for 50 ms. In the inactivation protocol, the pre-pulse is at approximately −85 mV for 1 second, which inactivates about 15% of the T-type channels.
(§5) Test compounds were dissolved in external solution, 0.1-0.01% DMSO. After 10 min rest, they were applied by gravity close to the cell using a WPI microfil tubing. The “non-inactivated” pre-pulse was used to examine the resting block of a compound. The “inactivated” protocol was employed to study voltage-dependent block. However, the initial data shown below were mainly obtained using the non-inactivated protocol only. Kd values are shown for various compounds of the invention in Table 4 measured at 1 μM for the drug of interest except for compound 18 which was measured at 200 nM.

For experiment [2], the target named is T2, human α1H T-type channels (Homo sapiens, UniProt O95180).
T2 construct: expressed in transfected cells; host or cells: HEK 293
The description is as above. The format is cell-based. Conditions: measured at 1 μM drug, mainly non-inactivated protocol. The procedure:
as §1, §2, §3, §4, §5

T2 sequence (O95180 whole entry): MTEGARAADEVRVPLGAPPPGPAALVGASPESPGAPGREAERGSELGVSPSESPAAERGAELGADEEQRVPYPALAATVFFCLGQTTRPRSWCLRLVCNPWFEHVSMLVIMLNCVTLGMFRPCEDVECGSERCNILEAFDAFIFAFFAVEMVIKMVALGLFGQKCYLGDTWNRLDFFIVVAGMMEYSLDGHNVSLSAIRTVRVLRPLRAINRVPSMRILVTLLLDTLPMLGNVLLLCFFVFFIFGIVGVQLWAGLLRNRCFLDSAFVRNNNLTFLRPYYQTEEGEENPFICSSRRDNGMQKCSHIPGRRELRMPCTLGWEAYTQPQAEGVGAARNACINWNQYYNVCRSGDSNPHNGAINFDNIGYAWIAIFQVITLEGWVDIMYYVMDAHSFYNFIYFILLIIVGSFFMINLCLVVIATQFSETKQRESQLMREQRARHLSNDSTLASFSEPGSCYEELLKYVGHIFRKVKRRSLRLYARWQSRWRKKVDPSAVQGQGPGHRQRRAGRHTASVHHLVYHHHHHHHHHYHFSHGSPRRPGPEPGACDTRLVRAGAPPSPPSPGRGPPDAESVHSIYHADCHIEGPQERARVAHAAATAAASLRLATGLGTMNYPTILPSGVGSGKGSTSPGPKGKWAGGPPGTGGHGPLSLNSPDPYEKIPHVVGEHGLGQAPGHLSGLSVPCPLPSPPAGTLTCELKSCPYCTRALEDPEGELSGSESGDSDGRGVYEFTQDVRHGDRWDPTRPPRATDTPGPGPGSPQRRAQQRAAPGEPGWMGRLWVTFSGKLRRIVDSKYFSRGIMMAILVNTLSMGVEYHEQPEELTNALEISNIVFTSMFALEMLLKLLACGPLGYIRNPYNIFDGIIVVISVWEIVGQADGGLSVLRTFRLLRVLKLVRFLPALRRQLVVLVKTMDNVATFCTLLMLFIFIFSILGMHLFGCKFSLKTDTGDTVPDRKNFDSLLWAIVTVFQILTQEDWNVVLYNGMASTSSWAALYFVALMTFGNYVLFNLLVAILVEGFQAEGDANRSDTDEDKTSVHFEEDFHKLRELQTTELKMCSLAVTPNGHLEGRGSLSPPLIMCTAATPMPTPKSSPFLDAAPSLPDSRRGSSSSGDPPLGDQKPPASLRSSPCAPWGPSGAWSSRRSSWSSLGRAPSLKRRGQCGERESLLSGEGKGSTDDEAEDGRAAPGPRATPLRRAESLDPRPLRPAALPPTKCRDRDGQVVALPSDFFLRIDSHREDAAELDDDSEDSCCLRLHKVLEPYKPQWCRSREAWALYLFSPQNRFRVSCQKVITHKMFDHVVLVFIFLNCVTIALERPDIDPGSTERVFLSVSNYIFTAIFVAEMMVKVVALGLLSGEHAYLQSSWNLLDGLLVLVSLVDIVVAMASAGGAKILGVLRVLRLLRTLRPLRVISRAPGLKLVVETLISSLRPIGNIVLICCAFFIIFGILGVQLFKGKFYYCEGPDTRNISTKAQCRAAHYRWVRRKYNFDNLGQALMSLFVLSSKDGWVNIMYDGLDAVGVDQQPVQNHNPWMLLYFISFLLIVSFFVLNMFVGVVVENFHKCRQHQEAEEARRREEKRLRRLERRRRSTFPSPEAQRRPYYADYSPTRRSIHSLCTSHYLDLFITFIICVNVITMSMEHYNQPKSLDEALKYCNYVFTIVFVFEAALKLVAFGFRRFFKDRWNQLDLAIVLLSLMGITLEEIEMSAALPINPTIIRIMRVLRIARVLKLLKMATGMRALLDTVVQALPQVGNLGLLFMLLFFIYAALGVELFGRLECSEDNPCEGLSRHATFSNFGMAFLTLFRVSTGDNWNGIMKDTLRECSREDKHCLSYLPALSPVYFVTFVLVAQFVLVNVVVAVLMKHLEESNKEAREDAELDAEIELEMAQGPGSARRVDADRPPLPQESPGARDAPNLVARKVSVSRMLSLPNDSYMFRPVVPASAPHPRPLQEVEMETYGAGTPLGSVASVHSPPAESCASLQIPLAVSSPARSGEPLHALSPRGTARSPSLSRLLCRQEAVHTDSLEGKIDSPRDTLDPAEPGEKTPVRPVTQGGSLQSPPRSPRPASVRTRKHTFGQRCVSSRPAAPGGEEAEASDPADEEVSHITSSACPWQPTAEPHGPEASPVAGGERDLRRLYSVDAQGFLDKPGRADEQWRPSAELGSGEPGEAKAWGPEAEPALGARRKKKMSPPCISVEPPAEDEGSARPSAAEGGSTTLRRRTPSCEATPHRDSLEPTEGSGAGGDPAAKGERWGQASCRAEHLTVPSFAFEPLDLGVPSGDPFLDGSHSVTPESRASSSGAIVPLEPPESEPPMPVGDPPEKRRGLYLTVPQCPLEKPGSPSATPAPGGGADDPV
T1 sequence (O43497 whole entry): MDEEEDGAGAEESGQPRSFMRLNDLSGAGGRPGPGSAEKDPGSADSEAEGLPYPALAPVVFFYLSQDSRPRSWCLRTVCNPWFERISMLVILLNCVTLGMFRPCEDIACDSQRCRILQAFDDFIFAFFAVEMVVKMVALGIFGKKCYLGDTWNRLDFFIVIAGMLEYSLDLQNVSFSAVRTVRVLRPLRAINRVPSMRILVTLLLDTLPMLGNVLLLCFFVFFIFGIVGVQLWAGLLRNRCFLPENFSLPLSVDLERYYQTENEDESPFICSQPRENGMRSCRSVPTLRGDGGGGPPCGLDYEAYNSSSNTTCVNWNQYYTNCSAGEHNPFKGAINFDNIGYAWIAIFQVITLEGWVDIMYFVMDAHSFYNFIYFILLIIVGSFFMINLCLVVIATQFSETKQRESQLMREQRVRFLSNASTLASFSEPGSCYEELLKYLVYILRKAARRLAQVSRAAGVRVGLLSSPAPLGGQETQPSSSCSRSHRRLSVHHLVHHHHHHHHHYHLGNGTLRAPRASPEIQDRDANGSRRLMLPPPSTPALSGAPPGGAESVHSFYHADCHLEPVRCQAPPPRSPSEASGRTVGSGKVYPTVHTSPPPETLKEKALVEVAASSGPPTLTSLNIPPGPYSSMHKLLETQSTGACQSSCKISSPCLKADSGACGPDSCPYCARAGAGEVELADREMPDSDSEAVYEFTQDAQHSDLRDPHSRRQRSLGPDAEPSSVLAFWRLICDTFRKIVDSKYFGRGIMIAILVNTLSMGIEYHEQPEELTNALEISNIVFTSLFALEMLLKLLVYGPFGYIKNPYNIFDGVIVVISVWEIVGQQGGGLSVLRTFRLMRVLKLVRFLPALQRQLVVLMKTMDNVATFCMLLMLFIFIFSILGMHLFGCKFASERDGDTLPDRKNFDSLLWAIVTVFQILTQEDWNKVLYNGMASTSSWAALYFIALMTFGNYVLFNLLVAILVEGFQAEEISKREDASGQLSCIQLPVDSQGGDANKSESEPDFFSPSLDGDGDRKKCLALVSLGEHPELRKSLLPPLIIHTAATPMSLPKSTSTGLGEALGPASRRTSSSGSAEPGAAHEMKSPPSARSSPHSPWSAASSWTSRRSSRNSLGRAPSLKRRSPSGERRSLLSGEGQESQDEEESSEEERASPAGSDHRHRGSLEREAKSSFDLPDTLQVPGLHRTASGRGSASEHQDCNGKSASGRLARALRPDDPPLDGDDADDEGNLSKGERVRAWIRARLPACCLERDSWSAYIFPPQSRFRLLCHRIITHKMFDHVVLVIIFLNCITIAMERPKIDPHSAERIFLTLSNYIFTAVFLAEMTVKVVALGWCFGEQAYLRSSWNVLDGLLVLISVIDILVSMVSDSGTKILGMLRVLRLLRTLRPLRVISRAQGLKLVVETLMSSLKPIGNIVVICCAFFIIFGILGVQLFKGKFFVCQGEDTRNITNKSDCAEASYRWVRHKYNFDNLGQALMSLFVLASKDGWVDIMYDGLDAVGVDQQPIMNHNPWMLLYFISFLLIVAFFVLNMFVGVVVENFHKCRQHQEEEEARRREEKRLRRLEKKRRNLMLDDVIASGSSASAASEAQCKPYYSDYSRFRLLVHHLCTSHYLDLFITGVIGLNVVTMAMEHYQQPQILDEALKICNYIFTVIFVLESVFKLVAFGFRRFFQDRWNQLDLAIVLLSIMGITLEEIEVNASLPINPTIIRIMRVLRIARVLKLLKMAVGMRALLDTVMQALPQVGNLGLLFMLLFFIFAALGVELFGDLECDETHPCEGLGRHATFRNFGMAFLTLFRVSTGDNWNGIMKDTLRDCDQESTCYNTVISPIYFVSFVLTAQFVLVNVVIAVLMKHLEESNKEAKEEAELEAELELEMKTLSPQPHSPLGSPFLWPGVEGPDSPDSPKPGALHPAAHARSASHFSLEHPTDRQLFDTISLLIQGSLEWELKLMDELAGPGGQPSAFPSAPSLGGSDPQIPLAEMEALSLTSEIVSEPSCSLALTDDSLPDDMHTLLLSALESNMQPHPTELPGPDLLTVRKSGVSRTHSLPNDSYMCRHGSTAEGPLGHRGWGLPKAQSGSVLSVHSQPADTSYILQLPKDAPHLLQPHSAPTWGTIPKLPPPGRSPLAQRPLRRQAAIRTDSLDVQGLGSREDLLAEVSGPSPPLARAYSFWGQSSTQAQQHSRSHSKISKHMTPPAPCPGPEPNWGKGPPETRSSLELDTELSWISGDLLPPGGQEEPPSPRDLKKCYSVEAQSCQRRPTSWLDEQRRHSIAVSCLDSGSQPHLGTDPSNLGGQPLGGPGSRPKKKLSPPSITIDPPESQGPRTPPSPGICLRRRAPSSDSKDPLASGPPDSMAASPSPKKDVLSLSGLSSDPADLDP

For orientation: Kd means the free concentration of one partner at which half of the binding sites on the other are occupied at equilibrium, for simple one-to-one binding. On to `O=C(NCCc1c[nH]c2ccc(F)cc12)C1CCCN1C(=O)/C=C/c1ccc(F)c(Br)c1` (stereo in doubt) [Compound 19, (R,E)-1-(3-(3-bromo-4-fluorophenyl)acryloyl)-N-(2-(5-fluoro-1H-indol-3-yl)ethyl)pyrrolidine-2-carboxamide], for which, in experiment [1], the Kd came out at 1350 nM.

For `O=C(/C=C/c1ccc(F)c(Br)c1)NC1(C(=O)NCCc2c[nH]c3ccc(F)cc23)CCOCC1` [Compound 16, (E)-4-(3-(3-bromo-4-fluorophenyl)acrylamido)-N-(2-(5-fluoro-1H-indol-3-yl)ethyl)tetrahydro-2H-pyran-4-carboxamide], the Kd in experiment [1] was determined as 430 nM.

Regarding `CC(=O)N1CCC(NC(=O)/C=C/c2ccc(F)c(Br)c2)(C(=O)NCCc2c[nH]c3ccc(F)cc23)CC1` [Compound 21, (E)-1-acetyl-4-(3-(3-bromo-4-fluorophenyl)acrylamido)-N-(2-(5-fluoro-1H-indol-3-yl)ethyl)piperidine-4-carboxamide], the Kd in experiment [1] was found to be 2620 nM.

As for `COCCC(=O)N1CCC(NC(=O)/C=C/c2ccc(F)c(Br)c2)(C(=O)NCCc2c[nH]c3ccc(F)cc23)CC1` [Compound 25, (E)-4-(3-(3-bromo-4-fluorophenyl)acrylamido)-N-(2-(5-fluoro-1H-indol-3-yl)ethyl)-1-(3-methoxypropanoyl)piperidine-4-carboxamide], the Kd in experiment [1] amounted to 5370 nM.

Turning to `CCNC(=O)N1CCC(NC(=O)/C=C/c2ccc(F)c(Br)c2)(C(=O)NCCc2c[nH]c3ccc(F)cc23)CC1` [Compound 26, (E)-4-(3-(3-bromo-4-fluorophenyl)acrylamido)-N1-ethyl-N4-(2-(5-fluoro-1H-indol-3-yl)ethyl)piperidine-1,4-dicarboxamide], in experiment [1], the Kd stood at 550 nM.

For the compound `O=C(/C=C/c1ccc(F)cc1)NC1(C(=O)Nc2cccc(C(F)(F)F)c2)CCNCC1` [Compound 33, (E)-4-(3-(4-fluorophenyl)acrylamido)-N-(3-(trifluoromethyl)phenyl)piperidine-4-carboxamide], in experiment [1], the Kd turned out to be 2450 nM.

With `O=C(/C=C/c1ccc(F)c(F)c1)NC1(C(=O)Nc2ccccc2)CCNCC1` [Compound 34, (E)-4-(3-(3,4-difluorophenyl)acrylamido)-N-phenylpiperidine-4-carboxamide], the Kd in experiment [1] is 3290 nM.

On to `O=C(/C=C\c1ccccc1)NC1(C(=O)Nc2cc(C(F)(F)F)cc(C(F)(F)F)c2)CCNCC1` [Compound 40, (Z)-N-(3,5-bis(trifluoromethyl)phenyl)-4-(3-phenylacrylamido)piperidine-4-carboxamide], for which the Kd stood at 130 nM in experiment [1] and 2420 nM in experiment [2].

For the compound `CN1CCC(NC(=O)/C=C/c2ccc(F)cc2)(C(=O)Nc2cc(C(F)(F)F)cc(C(F)(F)F)c2)CC1` [Compound 42, (E)-N-(3,5-bis(trifluoromethyl)phenyl)-4-(3-(4-fluorophenyl)acrylamido)-1-methylpiperidine-4-carboxamide], the Kd worked out at 220 nM in experiment [1] and 41900 nM in experiment [2].

Regarding `Cc1cc(/C=C/C(=O)NC2(C(=O)Nc3cc(C(F)(F)F)cc(C(F)(F)F)c3)CCN(C)CC2)ccc1F` [Compound 43, (E)-N-(3,5-bis(trifluoromethyl)phenyl)-4-(3-(4-fluoro-3-methylphenyl)acrylamido)-1-methylpiperidine-4-carboxamide], the Kd in experiment [1] stood at 80 nM; in experiment [2], 1120 nM.

For `O=C(/C=C/c1ccc(F)cc1)NC1(C(=O)Nc2cc(Cl)cc(Cl)c2)CCNCC1` [Compound 44, (E)-N-(3,5-dichlorophenyl)-4-(3-(4-fluorophenyl)acrylamido)piperidine-4-carboxamide], the Kd in experiment [1] turned out to be 320 nM; in experiment [2], 1610 nM.

On to `O=C(/C=C/c1ccc(F)cc1)NC1(C(=O)Nc2ccccc2C(F)(F)F)CCNCC1` [Compound 46, (E)-4-(3-(4-fluorophenyl)acrylamido)-N-(2-(trifluoromethyl)phenyl)piperidine-4-carboxamide], for which the Kd in experiment [1] came out at 14600 nM.

Turning to `CN(CCc1c[nH]c2ccc(F)cc12)C(=O)C1(NC(=O)/C=C/c2ccc(F)cc2)CCNCC1` [Compound 49, (E)-N-(2-(5-fluoro-1H-indol-3-yl)ethyl)-4-(3-(4-fluorophenyl)acrylamido)-N-methylpiperidine-4-carboxamide], the equilibrium dissociation constant (Kd) in experiment [1] was 580 nM.

Consider `O=C(/C=C/c1ccc(F)c(F)c1)NC1(C(=O)Nc2ccccc2Oc2ccccc2)CCNCC1` [Compound 50, (E)-4-(3-(3,4-difluorophenyl)acrylamido)-N-(2-phenoxyphenyl)piperidine-4-carboxamide], for which the Kd in experiment [1] came out at 80 nM; in experiment [2] it was 2970 nM.

As for `O=C(/C=C/c1ccc(F)cc1)NC1(C(=O)Nc2cc(C(F)(F)F)cc(C(F)(F)F)c2)CCN(c2ncccn2)CC1` [Compound 52, (E)-N-(3,5-bis(trifluoromethyl)phenyl)-4-(3-(4-fluorophenyl)acrylamido)-1-(pyrimidin-2-yl)piperidine-4-carboxamide], the Kd in experiment [1] came out at 160 nM.

For `O=C(/C=C/c1ccc(F)cc1)NC1(C(=O)Nc2cc(C(F)(F)F)cc(C(F)(F)F)c2)CCN(C2CCOCC2)CC1` [Compound 54, (E)-N-(3,5-bis(trifluoromethyl)phenyl)-4-(3-(4-fluorophenyl)acrylamido)-1-(tetrahydro-2H-pyran-4-yl)piperidine-4-carboxamide], the results for the Kd in experiment [1] and in experiment [2] were 210 nM and 6320 nM, respectively.

With `O=C(/C=C/c1ccc(F)cc1)NC1(C(=O)Nc2cc(C(F)(F)F)cc(C(F)(F)F)c2)CCC(O)CC1` (stereo not shown) [Compound 56, (E)-N-(3,5-bis(trifluoromethyl)phenyl)-1-(3-(4-fluorophenyl)acrylamido)-4-hydroxycyclohexanecarboxamide], the Kd in experiment [1] was determined as 1060 nM.

Turning to `COCCN1CCC(NC(=O)/C=C/c2ccc(F)cc2)(C(=O)Nc2cc(C(F)(F)F)cc(C(F)(F)F)c2)CC1` [Compound 57, (E)-N-(3,5-bis(trifluoromethyl)phenyl)-4-(3-(4-fluorophenyl)acrylamido)-1-(2-methoxyethyl)piperidine-4-carboxamide], in experiment [1], the Kd was 130 nM.

For the compound `COCCOC1CCC(NC(=O)/C=C/c2ccc(F)cc2)(C(=O)Nc2cc(C(F)(F)F)cc(C(F)(F)F)c2)CC1` (stereo not shown) [Compound 61, (E)-N-(3,5-bis(trifluoromethyl)phenyl)-1-(3-(4-fluorophenyl)acrylamido)-4-(2-methoxyethoxy)cyclohexanecarboxamide], the Kd in experiment [1] came to 990 nM.

`NC(=O)CN1CCC(NC(=O)/C=C/c2ccc(F)cc2)(C(=O)Nc2cc(C(F)(F)F)cc(C(F)(F)F)c2)CC1` [Compound 62, (E)-1-(2-amino-2-oxoethyl)-N-(3,5-bis(trifluoromethyl)phenyl)-4-(3-(4-fluorophenyl)acrylamido)piperidine-4-carboxamide]: the Kd in experiment [1] came to 280 nM.

Consider `NCC(=O)N1CCC(NC(=O)/C=C/c2ccc(F)cc2)(C(=O)Nc2cc(C(F)(F)F)cc(C(F)(F)F)c2)CC1` [Compound 63, (E)-1-(2-aminoacetyl)-N-(3,5-bis(trifluoromethyl)phenyl)-4-(3-(4-fluorophenyl)acrylamido)piperidine-4-carboxamide], for which the Kd in experiment [1] stood at 90 nM.

In the case of `CN(CCc1c[nH]c2ccc(F)cc12)C(=O)C1(NC(=O)/C=C/c2ccc(F)cc2)CCN(CC(N)=O)CC1` [Compound 65, (E)-1-(2-amino-2-oxoethyl)-N-(2-(5-fluoro-1H-indol-3-yl)ethyl)-4-(3-(4-fluorophenyl)acrylamido)-N-methylpiperidine-4-carboxamide], the Kd in experiment [1] turned out to be 2570 nM.

Consider `CC(C)(O)C(=O)N1CCC(NC(=O)/C=C/c2ccc(F)cc2)(C(=O)Nc2cc(C(F)(F)F)cc(C(F)(F)F)c2)CC1` [Compound 66, (E)-N-(3,5-bis(trifluoromethyl)phenyl)-4-(3-(4-fluorophenyl)acrylamido)-1-(2-hydroxy-2-methylpropanoyl)piperidine-4-carboxamide], for which the Kd in experiment [1] came out at 1630 nM.

For `CN(CCc1c[nH]c2ccc(F)cc12)C(=O)C1(NC(=O)/C=C/c2ccc(F)cc2)CCN(C(=O)CN)CC1` [Compound 67, (E)-1-(2-aminoacetyl)-N-(2-(5-fluoro-1H-indol-3-yl)ethyl)-4-(3-(4-fluorophenyl)acrylamido)-N-methylpiperidine-4-carboxamide], the Kd in experiment [1] came out at 1020 nM.

As for `CC(C)(O)CN1CCC(NC(=O)/C=C/c2ccc(F)cc2)(C(=O)NCCc2c[nH]c3ccc(F)cc23)CC1` [Compound 69, (E)-N-(2-(5-fluoro-1H-indol-3-yl)ethyl)-4-(3-(4-fluorophenyl)acrylamido)-1-(2-hydroxy-2-methylpropyl)piperidine-4-carboxamide], the Kd in experiment [1] is 3630 nM.
